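Following 48 hours of exposure in 96-well plates, responses at five concentrations were used to interpolate endpoints linearly. GI50 is the concentration that inhibits growth by half. TGI: concentration producing complete growth inhibition.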
Tests used:
Experiment in all cases: NCI tumour cell line growth inhibition, 48 h
[1] = tested on: HCT-15 colon
[2] = tested on: LOX IMVI melanoma
[3] = tested on: MOLT-4 leukemia
[4] = tested on: CCRF-CEM leukemia
[5] = tested on: SR leukemia
[6] = tested on: HCT-116 colon
[7] = tested on: SF-295 CNS
[8] = tested on: RPMI-8226 leukemia
[9] = tested on: UACC-257 melanoma
[10] = tested on: EKVX NSCLC

CC(C)=CC(=O)Cc1nc2cc(C)c(C)cc2[nH]c1=O
TGI [1]: > 100 µM | TGI [2]: > 100 µM | TGI [3]: > 100 µM | TGI [4]: > 100 µM | TGI [5]: > 100 µM | TGI [6]: > 100 µM | TGI [7]: > 100 µM | TGI [8]: > 100 µM | TGI [9]: > 100 µM | TGI [10]: > 100 µM

NCc1nnn(Cc2ccccc2)c1N
TGI [1]: > 100 µM | TGI [2]: > 100 µM | TGI [3]: > 100 µM | TGI [4]: > 100 µM | TGI [5]: > 100 µM | TGI [6]: > 100 µM | TGI [7]: > 100 µM | TGI [8]: > 100 µM | TGI [9]: > 100 µM | TGI [10]: > 100 µM

CCn1cnc2c(Nc3cccc(Cl)c3)nc(N[C@@H]3CCCC[C@@H]3N)nc21
GI50 [1]: 2.08 µM | TGI [1]: 8.75 µM | GI50 [2]: 1.24 µM | TGI [2]: 2.57 µM | GI50 [3]: 2.24 µM | TGI [3]: 7.27 µM | GI50 [4]: 2.88 µM | TGI [4]: 9.66 µM | GI50 [5]: 0.699 µM | TGI [5]: 3.94 µM | GI50 [6]: 1.12 µM | TGI [6]: 2.87 µM | GI50 [7]: 1.55 µM | TGI [7]: 4.51 µM | GI50 [8]: 1.8 µM | TGI [8]: 4.39 µM | GI50 [9]: 1.57 µM | TGI [9]: 3.11 µM | GI50 [10]: 1.6 µM | TGI [10]: 3.92 µM

N#Cc1ccnc(N2C(=O)CC[C@H]2C(=O)N(c2cncc(F)c2)[C@H](C(=O)NC2CC(F)(F)C2)c2ccccc2Cl)c1
GI50 [1]: 88.6 µM | TGI [1]: > 100 µM | GI50 [2]: 52.6 µM | TGI [2]: > 100 µM | GI50 [3]: 30.5 µM | TGI [3]: > 100 µM | GI50 [4]: > 100 µM | TGI [4]: > 100 µM | GI50 [5]: 62.5 µM | TGI [5]: > 100 µM | GI50 [6]: 29.9 µM | TGI [6]: > 100 µM | GI50 [7]: > 100 µM | TGI [7]: > 100 µM | GI50 [8]: 97.3 µM | TGI [8]: > 100 µM | GI50 [9]: > 100 µM | TGI [9]: > 100 µM | GI50 [10]: 99.2 µM | TGI [10]: > 100 µM

COC(=O)[C@]1(C)CCC[C@@]2(C)C1CCC1=CC3(C(C)C)CCC12OO3 (stereo not given in full)
TGI [1]: > 100 µM | TGI [2]: > 100 µM | TGI [3]: > 100 µM | TGI [4]: > 100 µM | TGI [5]: > 100 µM | TGI [6]: > 100 µM | TGI [7]: > 100 µM | TGI [8]: > 100 µM | TGI [9]: > 100 µM | TGI [10]: > 100 µM

Nc1ncnc2c1ncn2C1OC(CO)=CC1O (stereo not given)
TGI [1]: > 37.5 µM | TGI [2]: > 37.5 µM | TGI [3]: > 37.5 µM | TGI [4]: > 37.5 µM | TGI [5]: > 37.5 µM | TGI [6]: > 37.5 µM | TGI [7]: > 37.5 µM | TGI [8]: > 37.5 µM | TGI [9]: > 37.5 µM | TGI [10]: > 37.5 µM

— PubChem BioAssay (NCI)
